Assay results: patent publication US20040254189A1, “Jnk inhibitors” (priority 2001, published 2004)

Assays:
[1] = system: TNF-α; experiment: Increase in the amount of TNF-α in ear tissue of IgE-passively sensitized mouse after antigen (DNFB) stimulation; format: in vivo; conditions: female BALB/c mice, p.o., eight hours after application of DNFB
Procedure: Female BALB/c mice were passively sensitized systemically by intravenous administration of 0.25 ml of a 20-fold diluted anti-DNP monoclonal antibody. On the following day, skin reactions were induced by applying 10 μl of a 0.15% dinitrofluorobenzene solution (DNFB diluted with a 4:1 mixture of acetone and olive oil) to each side of both ears of mice. Eight hours after the application of DNFB, both ears were cut off and homogenized in 400 μl of PBS using Polytron and then centrifuged (15,000 rpm, 15 minutes, 4° C.). The resulting supernatant was used as a sample. The amount of TNF-α was determined using a commercially available ELISA kit. The amount of proteins in the sample was also determined, and the amount of TNF-α was calculated per mg of protein. A preliminary test was performed in which an auricle sample was taken at certain intervals after the application of the antigen, and a time course of the amount of TNF-α was observed. The drug was orally administered one hour before the application of DNFB.

[2] = system: peritoneal mast cells; experiment: Antigen stimulation-induced release of TNF-α from peritoneal mast cells of passively sensitized rat; format: cell-based; conditions: 10^−9 to 10^−5 mol/l, 60 minutes preincubation, two hours after DNP-BSA
Procedure: Female Wistar rats were intraperitoneally administered 2 ml of an anti-DNP-IgE antibody (diluted 250-fold), and killed by exsanguination after 48 hours. 20 ml of a physiological mast cells medium (MCM) was injected into the abdominal cavity, and the lavage was recovered. The lavage was centrifuged at 50×g for seven minutes at 4° C. and then washed twice with MCM. Cells were suspended in 1 ml of a heparin-free MCM at a concentration of 1.25×10^5 cells/mL, and then CaCl2 was added (at a final concentration of 1 mmol/L). The resulting mixture was incubated with Compound A or DMSO (at a final concentration of 0.1%) at 37° C. for 60 minutes, and then DNP-BSA (at a final concentration of 30 ng/mL) was added, and further incubation was performed for two hours. Thereafter, the supernatant was harvested and stored at −40° C. until the amount of TNF-A was measured. The amount of TNF-α was determined using a commercially available ELISA kit.

[3] = system: JNK (JNK1 and JNK2); experiment: Western blot analysis of activated site-specific phosphorylation of JNK in passively sensitized RBL-2H3 cells after antigen stimulation; format: cell-based, rat
Procedure: (§1) Rat basophilic leukemia 2H3 (RBL-2H3) cells (JCRB0023 from Health Science Research Resources Bank) were seeded in a 6-well plate or a 60 mm dish (0.5×10^6 cells/ml) and sensitized with the anti-DNP-IgE antibody (1:2000) at 37° C. for 90 minutes, and then washed twice with a glucose/PIPES buffer. After the RBL-2H3 cells were incubated at 37° C. for 15 minutes in the presence of Compound A or DMSO (at a final concentration of 0.1%), DNP-BSA (at a final concentration of 3 ng/ml) was added, and further incubation was performed for 10 minutes. The cells were then washed twice with PBS on ice, the cells were harvested with a scraper in a cell extraction buffer for western blot analysis or kinase assay, and incubated on ice for 15 minutes, and centrifuged (14,500 rpm, 4° C., 15 minutes). The resulting supernatant was recovered.
(§2) Western Blot Analysis: The supernatant of the total protein extracted from the cells was separated by 10% SDS-PAGE. The proteins and phosphorylated proteins were detected by a chemiluminescence technique using an anti-PLCγ-1[pY783] phosphospecific antibody, an anti-PLCγ antibody, an anti-active JNK (pTPpY) antibody, an anti-phospho-MAPK (ERK1/2)(Thr202/[…]) antibody, an anti-phospho-p38MAPK (Thr180/Tyr182) antibody, an anti-p44/42MAP kinase antibody, and an anti-JNK antibody.

[4] = system: PLCγ; experiment: Western blot analysis of activated site-specific phosphorylation of PLCγ in passively sensitized RBL-2H3 cells after antigen stimulation; format: cell-based, rat; conditions: ten minutes after antigen stimulation
Procedure: as §1, §2

[5] = system: ERKs; experiment: Western blot analysis of activated site-specific phosphorylation of ERKs in passively sensitized RBL-2H3 cells after antigen stimulation; format: cell-based, rat; conditions: ten minutes after antigen stimulation
Procedure: as §1, §2

[6] = system: p38MAPK; experiment: Western blot analysis of activated site-specific phosphorylation of p38MAPK in passively sensitized RBL-2H3 cells after antigen stimulation; format: cell-based, rat; conditions: ten minutes after antigen stimulation
Procedure: as §1, §2

[7] = system: JNK; experiment: JNK kinase assay on protein extract of treated RBL-2H3 cells with c-Jun(1-89) as substrate; format: cell-based, rat; conditions: 10^−5 to 10^−7 mol/l
Procedure: as §1
JNK Kinase Assay: The total protein extracted from the cells (250 μg) was incubated for 12 hours with gentle rocking with GST-c-Jun(1-89) sepharose beads (2 μg) at 4° C. After washing, a kinase buffer was used for replacement. ATP ([…]) was added to start the kinase reaction. After incubation was performed at 30° C. for 30 minutes, 10% SDS-PAGE was used for separation. The phosphorylated GST-c-Jun(1-89) was detected by a chemiluminescence technique using an anti-phospho-c-Jun antibody.

[8] = system: RBL-2H3 cells; experiment: Western blot analysis of protein expression amount in RBL-2H3 cells; format: cell-based, rat; conditions: treatment with Compound A
Procedure: as §1, §2

Structure (SMILES)	melting point	further results
CCOC(=O)C(C)(C)c1cn2nc(NCCCN3CCC(NC(c4ccccc4)c4ccccc4)CC3)ccc2n1	115 to 117 °C	–
c1ccc(C(OC2CCN(CCCNc3ccc4ncnn4n3)CC2)c2ccccc2)cc1	136 to 138 °C	–
O=C(O)c1nnc2ccc(NCCCN3CCC(OC(c4ccccc4)c4ccccc4)CC3)nn12 (hydrate or solvate)	102 to 104 °C	–
CC(C)(C)c1nnc2ccc(OCCCN3CCC(OC(c4ccccc4)c4ccccc4)CC3)nn12	125 to 127 °C	–
O=C(O)/C=C/C(=O)O.c1ccc(C(OC2CCN(CCCCCCOc3ccc4nncn4n3)CC2)c2ccccc2)cc1	144 to 146 °C	–
O=c1[nH]nc2ccc(NCCCN3CCC(OC(c4ccccc4)c4ccccc4)CC3)nn12 (hydrate or solvate)	156 to 170 °C	–
CC(C)(C(=O)O)c1cn2nc(NCCCN3CCC(OC(c4ccccc4)c4ccccc4)CC3)ccc2n1.O.O [Compound A, 2-[6-[3-[4-(diphenylmethoxy)piperidino]propylamino]imidazo[1,2-b]pyridazin-2-yl]-2-methylpropionic acid dihydrate]	–	effect on the increase in the amount of TNF-α in ear tissue ([1]; 0.1 to 10 mg/kg, one hour before DNFB): inhibited the increase in the amount of TNF-α in a dose-dependent manner; dose with significant inhibition of the increase in the amount of TNF-α ([1]; p<0.01 vs. control (Dunnett)): ≥ 1 mg/kg; effect on antigen stimulation-induced release of TNF-α [2]: inhibited the antigen stimulation-induced release of TNF-α in a concentration-dependent manner; effect on specific phosphorylation of JNK (JNK1 and JNK2) ([3]; 10^−5 to 10^−7 mol/l, ten minutes after antigen stimulation): inhibited the specific phosphorylation of JNK (JNK1 and JNK2) in a dose-dependent manner; selectivity for JNK activation among cascades activated depending on IgE ([3]; versus PLCγ, ERKs, p38MAPK in RBL-2H3 cells): selectively inhibits the activation of JNK; influence on activated site-specific phosphorylation of PLCγ [4]: no influence; influence on activated site-specific phosphorylation of ERKs [5]: no influence; influence on activated site-specific phosphorylation of p38MAPK [6]: no influence; JNK activity of protein extract on c-Jun(1-89) substrate [7]: inhibited depending on the concentration; expression amount of any other protein [8]: not influenced
CC(C)(C(=O)O)c1cn2nc(NCCCN3CCC(OC(c4ccccc4)c4ccccc4)CC3)ccc2n1.O.O (hydrate or solvate) [Compound A, 2-[6-[3-[4-(diphenylmethoxy)piperidino]propylamino]imidazo[1,2-b]pyridazin-2-yl]-2-methylpropionic acid dihydrate]	203 to 205 °C	–
c1ccc(C(OC2CCN(CCCCCCNc3ccc4nncn4n3)CC2)c2ccccc2)cc1 (hydrate or solvate)	124 to 127 °C	–
CC(C)(C(=O)O)c1cn2nc(NCCCN3CCC(OC(c4ccccc4)c4ccccc4)CC3)ccc2n1	205 to 206 °C	–
CCOC(=O)CNC(=O)c1cn2nc(NCCCN3CCC(OC(c4ccccc4)c4ccccc4)CC3)ccc2n1.Cl.Cl	205 °C	–

Continued, in another order:

melting point	Structure (SMILES)	further results
129 to 133 °C	CCOC(=O)c1nnc2ccc(NCCCN3CCC(OC(c4ccccc4)c4ccccc4)CC3)nn12 (hydrate or solvate)	–
162 °C	CCOC(=O)C(C)(C)n1nc2ccc(NCCCN3CCC(OC(c4ccccc4)c4ccccc4)CC3)nn2c1=O.Cl	–
219 to 220 °C	Cc1c(C(C)(C)C(=O)O)nc2ccc(NCCCN3CCC(OC(c4ccccc4)c4ccccc4)CC3)nn12	–
162 °C	CC(C)(C)C(=O)OCOC(=O)C(C)(C)n1nc2ccc(NCCCN3CCC(OC(c4ccccc4)c4ccccc4)CC3)nn2c1=O	–
181 to 185 °C	CC(C)(C(=O)O)n1nc2ccc(NCCCN3CCC(OC(c4ccccc4)c4ccccc4)CC3)nn2c1=O (hydrate or solvate)	–
